Tests used:
Kasumi-1 cells = assay: Kasumi-1 cellular viability assay (ATP-Lite, 72 h); assay type: cell-based; settings: Homo sapiens, ATP-Lite luminescence, % viability relative to DMSO
Procedure: Kasumi-1 cell line was purchased from ATCC (ATCC® CRL2724™). Cells were isolated from the peripheral blood of a child with acute myeloid leukemia (AML FAB M2) (in 2nd relapse after bone marrow transplantation) in 1989. Most cells are round. Kasumi-1 cells are observed to grow individually or in small clumps in suspension.
Kasumi-1 cells are cultured in RPMI-1640 (Gibco A10491-01) containing 10% heat-inactivated and 0.22 μm filtered FBS (Gibco 10270-106) at a density of 3E+5 and 3E+6 viable cell/mL following the certificate of analysis.
(§1) Cellular viability assay: Kasumi-1 cells were plated (50 μL) in 96-well cell culture microplates (PS, F-Bottom black, Cellstar, Greiner 655086) at final concentration of 15000 cells/well. The compounds of the invention were dissolved in DMSO, and a titration curve was generated at 1000× final concentration. Compounds were then diluted 500× in tissue culture medium (RPMI-1640, 10% FBS). Then 50 μl of test compound were added to Kasumi-1 cells in a final DMSO concentration of 0.1%, final volume 100 μl. A gas permeable sealing membrane was applied to the plate to prevent evaporation (Breathe-Easy sealing membrane, Sigma Z380059-1PK) and cells were incubated for 72 h at 37° C., 5% CO2, 80% RH. After 72h of treatment, the plates were taken out of the incubator and left for a few minutes at room temperature. 100 μl of the reconstituted reagent ATP-Lite One Step (Perkin Elmer, 6016739) was added to each well. The plates were shaken for 2 min at 700 rpm and placed in the dark for 10 minutes at room temperature before measurement of luminescence intensity with Envision instrument. The raw data were expressed in RLU. Results were expressed in % of viability relative to DMSO control and an IC50 was calculated based on the concentration-response profile of individual compounds.

Caov-3 cells = assay: Caov-3 cellular viability assay (ATP-Lite, 72 h); assay type: cell-based; settings: Homo sapiens, ATP-Lite luminescence, % viability relative to DMSO
Procedure: Caov-3 cell line was purchased from ATCC (ATCC® HTB-75™). Cells were isolated from the ovary of a ovarian cancer patient.
Caov-3 cells are cultured in DMEM (ATCC 30-2002) containing 10% heat-inactivated and 0.22 μm filtered FBS (Gibco 10270-106). The cells are seeded at 2.5E+4cell/cm^2 within the recommended subcultivation ratio of 1:3 to 1:6, as stated on the certificate of analysis issues by the provider of the cells.
as §1, with “assay: Caov-3” for “assay: Kasumi-1”, “of 10000” for “of 15000”, “to Caov-3” for “to Kasumi-1”, “After 72 h” for “After 72h”, “6016739) were” for “6016739) was”

[1] = target: T1, recombinant METTL3/METTL14 complex (Homo sapiens, UniProt Q86U44); assay: METTL3/14 Scintillation Proximity Assay (SPA), RNA methyltransferase activity; assay type: biochemical; settings: 5.31 nM METTL3/14 complex, 250 nM RNA substrate, 1 μM 3H-SAM, 90 min; for compounds marked * best of the two separated forms
T1 construct: purchased Active Motif 311970; host or cells: Sf9 cells
T1 sequence (Q86U44 whole entry): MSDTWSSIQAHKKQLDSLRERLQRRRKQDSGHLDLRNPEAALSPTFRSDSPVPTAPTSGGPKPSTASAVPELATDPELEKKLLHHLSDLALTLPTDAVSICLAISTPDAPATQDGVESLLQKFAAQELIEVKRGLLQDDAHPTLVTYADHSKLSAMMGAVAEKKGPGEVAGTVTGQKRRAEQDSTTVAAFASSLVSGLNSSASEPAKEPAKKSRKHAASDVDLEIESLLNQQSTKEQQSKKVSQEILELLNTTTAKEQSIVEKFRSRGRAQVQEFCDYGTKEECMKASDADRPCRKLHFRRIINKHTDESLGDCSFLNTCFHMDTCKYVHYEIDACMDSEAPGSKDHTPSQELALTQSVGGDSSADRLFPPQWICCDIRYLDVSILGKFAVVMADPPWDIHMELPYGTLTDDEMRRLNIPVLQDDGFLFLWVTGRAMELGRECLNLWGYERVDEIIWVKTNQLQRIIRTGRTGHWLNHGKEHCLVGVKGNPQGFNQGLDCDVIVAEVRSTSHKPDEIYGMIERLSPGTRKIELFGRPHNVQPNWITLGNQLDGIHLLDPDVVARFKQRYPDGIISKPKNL
T1 sequence (Q9HCE5 whole entry partner): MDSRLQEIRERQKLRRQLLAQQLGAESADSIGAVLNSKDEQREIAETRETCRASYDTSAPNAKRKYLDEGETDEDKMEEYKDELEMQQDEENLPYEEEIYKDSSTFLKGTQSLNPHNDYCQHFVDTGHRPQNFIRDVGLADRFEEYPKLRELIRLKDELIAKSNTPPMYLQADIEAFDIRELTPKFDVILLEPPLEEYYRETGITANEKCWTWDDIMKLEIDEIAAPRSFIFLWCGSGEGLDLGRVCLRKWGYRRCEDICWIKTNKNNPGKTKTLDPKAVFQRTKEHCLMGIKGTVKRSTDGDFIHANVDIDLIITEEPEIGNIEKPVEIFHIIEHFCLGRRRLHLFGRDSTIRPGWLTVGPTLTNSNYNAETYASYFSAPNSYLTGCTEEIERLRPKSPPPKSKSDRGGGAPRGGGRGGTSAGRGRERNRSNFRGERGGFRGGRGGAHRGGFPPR

Compound | IC50 [1] | IC50 (Kasumi-1 cells) | IC50 (Caov-3 cells)
O=C(Nc1cncc(N2CC3CC3C2)n1)C1(c2ccc(N3CCC[C@@H](NCC4CCC4)C3)cn2)COC1 (stereo partly drawn) [Compound 270, N-(6-(3-azabicyclo[3.1.0]hexan-3-yl)pyrazin-2-yl)-3-(5-((R)-3-((cyclobutylmethyl)amino)piperidin-1-yl)pyridin-2-yl)oxetane-3-carboxamide] | ≤ 50 nM | ≤ 500 nM | ≤ 500 nM
CC(n1cc(-c2cncc(N3CCCC3)n2)nn1)n1ccc(N2CCC[C@@H](NCC3CC3)C2)cc1=O (single isomer, unassigned) [Compound 180] | ≤ 50 nM | ≤ 500 nM | ≤ 500 nM
CC1CN(c2cncc(-c3cn(C(C)n4ccc(N5CCC[C@@H](NCC6CCC6)C5)cc4=O)nn3)c2)C1 (single isomer, unassigned) [Compound 177] | ≤ 50 nM | ≤ 500 nM | ≤ 500 nM
c1ncc(N2CCCC2)cc1-c1cn(C2(c3ccc(N4CCC[C@@H](NCC5CC5)C4)nn3)COC2)nn1 [Compound 212, (R)-N-(cyclopropylmethyl)-1-(6-(3-(4-(5-(pyrrolidin-1-yl)pyridin-3-yl)-1H-1,2,3-triazol-1-yl)oxetan-3-yl)pyridazin-3-yl)piperidin-3-amine] | ≤ 50 nM | ≤ 500 nM | ≤ 500 nM
CC(n1cc(-c2cncc(N3CC4(C3)CC4(F)F)n2)nn1)n1ccc(N2CCC[C@@H](NCC3CC3)C2)cc1=O (single isomer, unassigned) [Compound 254] | ≤ 50 nM | ≤ 500 nM | ≤ 500 nM
CCN(C)c1cncc(-c2cn(C(C)n3ccc(N4CCC[C@@H](NCC5CCC5)C4)cc3=O)nn2)c1 (single isomer, unassigned) [Compound 151] | ≤ 50 nM | ≤ 500 nM | ≤ 500 nM
O=c1cc(N2CCC[C@@H](NCC3CC3)C2)ccn1Cn1cc(-c2cncc(N3CCCC3)n2)nn1 [Compound 201, (R)-4-(3-((cyclopropylmethyl)amino)piperidin-1-yl)-1-((4-(6-(pyrrolidin-1-yl)pyrazin-2-yl)-1H-1,2,3-triazol-1-yl)methyl)pyridin-2(1H)-one] | ≤ 50 nM | ≤ 500 nM | ≤ 500 nM
COc1cc(-c2cn(Cn3ccc(N4CCCC(NCC5CCC5)C4)cc3=O)nn2)c2cn[nH]c2c1 (stereo not drawn) [Compound 027, 4-(3-((cyclobutylmethyl)amino)piperidin-1-yl)-1-((4-(6-methoxy-1H-indazol-4-yl)-1H-1,2,3-triazol-1-yl)methyl)pyridin-2(1H)-one] | ≤ 50 nM | ≤ 500 nM | ≤ 500 nM
c1cc(C2(n3cc(-c4cncc(N5CCCC5)n4)nn3)COC2)ncc1N1CCC[C@@H](NCC2CC2)C1 [Compound 185, (R)-N-(cyclopropylmethyl)-1-(6-(3-(4-(6-(pyrrolidin-1-yl)pyrazin-2-yl)-1H-1,2,3-triazol-1-yl)oxetan-3-yl)pyridin-3-yl)piperidin-3-amine] | ≤ 50 nM | ≤ 500 nM | ≤ 500 nM
FC1(F)CCN(c2cncc(-c3cn(C4(c5ccc(N6CCC[C@@H](NCC7CC7)C6)cn5)COC4)nn3)n2)C1 [Compound 215, (R)-N-(cyclopropylmethyl)-1-(6-(3-(4-(6-(3,3-difluoropyrrolidin-1-yl)pyrazin-2-yl)-1H-1,2,3-triazol-1-yl)oxetan-3-yl)pyridin-3-V)piperidin-3-amine] | ≤ 50 nM | ≤ 500 nM | ≤ 500 nM
CC(n1cc(-c2cncc(NCCO)c2)nn1)n1ccc(N2CCC[C@@H](NCC3CC3)C2)cc1=O (stereo partly drawn) [Compound 205] | ≤ 50 nM | > 5000 nM | 500 to 5000 nM
O=C(Nc1cncc(N2CCCC2)n1)C1(c2ccc(N3CCC[C@@H](NCC4CCC4)C3)cn2)COC1 [Compound 262, (R)-3-(5-(3-((cyclobutylmethyl)amino)piperidin-1-yl)pyridin-2-yl)-N-(6-(pyrrolidin-1-yl)pyrazin-2-yl)oxetane-3-carboxamide] | ≤ 50 nM | ≤ 500 nM | ≤ 500 nM
CC(n1cc(-c2cncc(N3CC4(C3)CC4(F)F)c2)nn1)n1ccc(N2CCC[C@@H](NCC3CC3)C2)cc1=O (single isomer, unassigned) [Compound 211] | ≤ 50 nM | ≤ 500 nM | ≤ 500 nM
O=C(Nc1cncc(N2CCCC2)c1)C1(c2ccc(N3CCC[C@@H](NCC4CC4)C3)cn2)COC1 [Compound 195, (R)-3-(5-(3-((cyclopropylmethyl)amino)piperidin-1-yl)pyridin-2-yl)-N-(5-(pyrrolidin-1-yl)pyridin-3-yl)oxetane-3-carboxamide] | ≤ 50 nM | 500 to 5000 nM | 500 to 5000 nM
CC(n1cc(-c2cccn3cncc23)nn1)n1ccc(N2CCC[C@@H](NCC3CCC3)C2)cc1=O (single isomer, unassigned) [Compound 124] | ≤ 50 nM | > 5000 nM | 500 to 5000 nM

Now from value to compound, other results behind:

IC50 [1] | Compound | IC50 (Kasumi-1 cells) | IC50 (Caov-3 cells)
≤ 50 nM | CC1(CN[C@@H]2CCCN(c3ccc(C4(C(=O)Nc5cc(=O)n6ccccc6n5)COC4)nc3)C2)CC1 [Compound 331, (R)-3-(5-(3-(((1-methylcyclopropyl)methyl)amino)piperidin-1-yl)pyridin-2-yl)-N-(4-oxo-4H-pyrido[1,2-a]pyrimidin-2-yl)oxetane-3-carboxamide] | ≤ 500 nM | ≤ 500 nM
≤ 50 nM | CC1(CN[C@@H]2CCCN(c3ccc(C4(c5nnc(-c6cncc(C7CC7)c6)s5)COC4)nc3)C2)CC1 [Compound 368, (R)-1-(6-(3-(5-(5-cyclopropylpyridin-3-yl)-1,3,4-thiadiazol-2-yl)oxetan-3-yl)pyridin-3-yl)-N-((1-methylcyclopropyl)methyl)piperidin-3-amine] | ≤ 500 nM | ≤ 500 nM
≤ 50 nM | O=C(Nc1cc(=O)n2ccccc2n1)C1(c2ccc(N3CCC[C@@H](NCC4(C(F)(F)F)CCC4)C3)cn2)COC1 [Compound 337, (R)-N-(4-oxo-4H-pyrido[1,2-a]pyrimidin-2-yl)-3-(5-(3-(((1-(trifluoromethyl)cyclobutyl)methyl)amino)piperidin-1-yl)pyridin-2-yl)oxetane-3-carboxamide] | 500 to 5000 nM | ≤ 500 nM
≤ 50 nM | c1cc(N2CCC[C@@H](NCC3CCC3)C2)ccc1Cn1cc(-c2cncc(N3CCCC3)n2)nn1 [Compound 287, (R)-N-(cyclobutylmethyl)-1-(4-((4-(6-(pyrrolidin-1-yl)pyrazin-2-yl)-1H-1,2,3-triazol-1-yl)methyl)phenyl)piperidin-3-amine] | ≤ 500 nM | ≤ 500 nM
≤ 50 nM | CC(c1ccc(N2CCC[C@@H](NCC3CC3)C2)nn1)n1cc(-c2cncc(N3CCCC3)n2)nn1 (single isomer, unassigned) [Compound 309] | ≤ 500 nM | ≤ 500 nM
≤ 50 nM | CN1CC(c2ccc(N3CCC[C@@H](NCC4CC4)C3)cn2)(n2cc(-c3cncc(C4CC4)c3)nn2)C1 [Compound 350, (R)-N-(cyclopropylmethyl)-1-(6-(3-(4-(5-cyclopropylpyridin-3-yl)-1H-1,2,3-triazol-1-yl)-1-methylazetidin-3-yl)pyridin-3-yl)piperidin-3-amine] | 500 to 5000 nM | 500 to 5000 nM
≤ 50 nM | c1ncc(C2CCC2)cc1-c1cn(C2(c3ccc(N4CCC[C@@H](NCC5CC5)C4)cn3)COC2)nn1 [Compound 312, (R)-1-(6-(3-(4-(5-cyclobutylpyridin-3-yl)-1H-1,2,3-triazol-1-yl)oxetan-3-yl)pyridin-3-yl)-N-(cyclopropylmethyl)piperidin-3-amine] | ≤ 500 nM | ≤ 500 nM
